Source: US20110045101A1, “FUNGICIDAL SUBSTITUTED AZOLES” (E.I. Du Pont De Nemours and Company, priority 2009, published 2011)
Marks after values point to notes of the source that are not given here.

Legend:
Format in all cases: in vivo
Conditions in all cases: 100 = 100% disease control
[1] = test system: Puccinia recondita f. sp. tritici; test: Test H: wheat leaf rust, test suspension sprayed after inoculation of wheat seedlings, visual disease rating
Procedure, shortened: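 Wheat seedlings inoculated with P. recondita spores, held 24 h saturated at 20 °C, then 2 days in growth chamber at 20 °C; compound suspension (acetone/water with Trem 014) sprayed to run-off afterwards. Rated visually; 200 ppm (≈500 g/ha) unless marked *, which denotes 40 ppm.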

Alternaria solani = test: Test D: tomato early blight, sprayed the day before inoculation, visual disease rating
Procedure, shortened: (§1)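 Compounds were dissolved in acetone (3% of final volume), then suspended in 50/50 acetone/purified water with 250 ppm Trem® 014 surfactant. Suspensions at 200 ppm (some at 40 ppm) were sprayed to run-off, 200 ppm being equivalent to 500 g/ha.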

[2] = test system: Erysiphe graminis f. sp. tritici; test: Test J: wheat powdery mildew on wheat seedlings, sprayed the day before inoculation, visual disease rating
Procedure, shortened: as §1

Septoria tritici = test: Test G: wheat leaf blotch on wheat seedlings, sprayed the day before inoculation, visual disease rating
Procedure, shortened: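 Spray to run-off, 200 ppm (≈500 g/ha; starred = 40 ppm), acetone/water 50/50 + 250 ppm Trem® 014. Spore inoculation +1 d. 24° C saturated 48 h → 20° C 19 d. Visual rating.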

Botrytis cinerea = test: Test C: tomato Botrytis on tomato seedlings, sprayed the day before inoculation, visual disease rating
Procedure, shortened: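 Compounds were dissolved in acetone (3% of final volume), then suspended in 50/50 acetone/purified water containing 250 ppm polyhydric alcohol ester surfactant. Suspensions were sprayed to run-off on tomato seedlings at 200 ppm, equivalent to 500 g/ha, or at 40 ppm where marked.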

[3] = test system: Puccinia recondita f. sp. tritici; test: Test I: wheat leaf rust on wheat seedlings, sprayed the day before inoculation, visual disease rating
Procedure, shortened: as §1

Septoria nodorum = test: Test F: wheat glume blotch on wheat seedlings, sprayed the day before inoculation, visual disease rating
Procedure, shortened: as §1

[4] = 40 ppm (marked *), 0 = no control
[5] = 200 ppm, 0 = no control relative to controls

SMILES	Test H disease control rating [1, 4]	Test D disease control rating (Alternaria solani; [4])	Test J disease control rating [2, 4]	Test G disease control rating (Septoria tritici; [4])	Test C disease control rating (Botrytis cinerea; [4])	Test I disease control rating [3, 4]	Test F disease control rating (Septoria nodorum; [4])	Test H disease control rating [1, 5]	Test D disease control rating (Alternaria solani; [5])	Test J disease control rating [2, 5]	Test G disease control rating (Septoria tritici; [5])	Test C disease control rating (Botrytis cinerea; [5])	Test I disease control rating [3, 5]	Test F disease control rating (Septoria nodorum; [5])
Fc1cccc(F)c1-n1c(-c2ccc(Cl)cc2)cnc1Cl [compound 341]	9* %	24* %	0* %	0* %	91* %	0* %	0* %	–	–	–	–	–	–	–
Fc1cc(-n2cnc(Br)c2-c2c(F)ccc(F)c2F)ccc1Cl [compound 342]	–	–	–	–	–	–	–	0%	99%	99%	95%	100%	98%	0%
Fc1ccc(F)c(-c2c(Br)ncn2-c2ccc(Cl)cc2)c1Cl [compound 343]	–	–	–	–	–	–	–	0%	97%	98%	94%	100%	93%	64%
Cc1nn(C)c(Cc2ccc(Cl)cc2)c1-c1ccc(F)cc1Cl [compound 344]	–	–	–	–	–	–	–	17%	0%	99%	95%	100%	89%	0%
Cc1ncn(-c2ccc(Cl)c(F)c2)c1-c1ccnc(Br)c1 [compound 345]	–	–	–	–	–	–	–	0%	0%	0%	27%	64%	0%	0%
Cc1ncn(-c2ccc(Cl)c(F)c2)c1-c1cncc(Br)c1 [compound 346]	–	–	–	–	–	–	–	9%	0%	0%	38%	99%	9%	0%
Cc1ncn(-c2ccc(Cl)c(F)c2)c1-c1ccc(Br)cn1 [compound 347]	–	–	–	–	–	–	–	26%	0%	0%	70%	93%	9%	0%
Cc1ncn(-c2ccc(Cl)c(F)c2)c1-c1cccnc1Cl [compound 348]	–	–	–	–	–	–	–	0%	0%	27%	8%	0%	0%	0%
Fc1cc(-n2c(Cl)nc(Br)c2-c2c(F)ccc(F)c2F)ccc1Cl [compound 350]	–	–	–	–	–	–	–	0%	100%	100%	91%	99%	99%	82%
Fc1ccc(F)c(-c2c(Br)nc(Cl)n2-c2ccc(Cl)cc2)c1F [compound 351]	–	–	–	–	–	–	–	54%	100%	100%	93%	100%	100%	99%
Fc1ccc(-n2c(Cl)nc(Br)c2-c2c(F)ccc(F)c2F)cc1 [compound 352]	–	–	–	–	–	–	–	18%	100%	77%	92%	100%	97%	87%
Fc1cc(-n2c(Cl)nc(CCl)c2-c2ccnc(Br)c2)ccc1Cl [compound 353]	–	–	–	–	–	–	–	0%	0%	0%	8%	0%	41%	0%
Cc1nc(Cl)n(-c2ccc(Cl)c(F)c2)c1-c1ccnc(Br)c1 [compound 354]	–	–	–	–	–	–	–	0%	99%	97%	93%	100%	98%	0%
Fc1cc(-n2c(Cl)nc(CCl)c2-c2cncc(Br)c2)ccc1Cl [compound 355]	–	–	–	–	–	–	–	0%	0%	0%	3%	0%	28%	0%
Cc1nc(Cl)n(-c2ccc(Cl)c(F)c2)c1-c1cncc(Br)c1 [compound 356]	–	–	–	–	–	–	–	17%	57%	0%	72%	98%	0%	0%
Fc1cc(-n2c(Cl)nc(CCl)c2-c2ccc(Br)cn2)ccc1Cl [compound 357]	–	–	–	–	–	–	–	0%	0%	0%	50%	63%	55%	100%
Cc1nc(Cl)n(-c2ccc(Cl)c(F)c2)c1-c1ccc(Br)cn1 [compound 358]	–	–	–	–	–	–	–	0%	0%	0%	90%	99%	41%	0%
Fc1cc(-n2c(Cl)nc(CCl)c2-c2cccnc2Cl)ccc1Cl [compound 359]	–	–	–	–	–	–	–	0%	0%	0%	35%	98%	80%	0%
Cc1nc(Cl)n(-c2ccc(Cl)c(F)c2)c1-c1cccnc1Cl [compound 360]	–	–	–	–	–	–	–	9%	99%	98%	95%	100%	99%	0%
Clc1ccc(-c2c(Cl)nc(Cl)n2Cc2cccc(Cl)c2)cc1 [compound 361]	–	–	–	–	–	–	–	9%	0%	80%	93%	99%	74%	0%
Fc1cccc(-n2cnc(Cl)c2-c2c(F)cc(F)cc2F)c1 [compound 362]	–	–	–	–	–	–	–	0%	99%	49%	86%	100%	83%	0%
CN(C)c1ncn(-c2cccc(F)c2)c1-c1c(F)cc(F)cc1F [compound 363]	–	–	–	–	–	–	–	9%	0%	0%	53%	99%	0%	0%
Fc1cccc(-n2cnc(Cl)c2-c2c(F)ccc(F)c2F)c1 [compound 364]	–	–	–	–	–	–	–	0%	100%	83%	58%	100%	98%	0%
Fc1cccc(-n2c(Cl)nc(Cl)c2-c2c(F)cc(F)cc2F)c1 [compound 365]	–	–	–	–	–	–	–	54%	100%	96%	91%	100%	99%	40%
Fc1cccc(-n2c(Cl)nc(Cl)c2-c2c(F)ccc(F)c2F)c1 [compound 366]	–	–	–	–	–	–	–	41%	100%	97%	91%	100%	99%	64%
Fc1cccc(-n2c(Br)nc(Cl)c2-c2c(F)cc(F)cc2F)c1 [compound 367]	–	–	–	–	–	–	–	9%	100%	97%	90%	99%	98%	89%
